{"source": "patent US11208446B2", "about": "“Agents and methods for treating CBP-dependent cancers” (priority 2016, dated 2021)", "key": {"MV411 cells [1]": {"test_system": "MV411 cells", "test": "CellTiter Glo viability of MV411 cells with ectopic BCL2 expression", "assay_type": "cell-based, human", "conditions": "MV411 cells with MSCV-Ires-GFP BCL2 vector"}, "MV411 cells [2]": {"test_system": "MV411 cells", "test": "Flow cytometric analysis of apoptosis (Annexin-V)", "assay_type": "cell-based, human", "conditions": "20 μM, 24 hours", "description": "Flow cytometric analysis of Apoptosis. Cells were resuspended to a concentration of 1×10^6 cells were plated in triplicate in a 12-well tissue culture plate. For assessment of annexin V staining, cells were washed with PBS and then resuspended in PBS with Annexin V-APC (BioLegend) and propidium iodide at a dilution of 1:1000. For intracellular detection of cleaved caspase 3, cells were fixed and permeabilized using the BD Cytofix/Cytoperm Fixation/Permeabilization solution according to the manufacturer's instructions (BD Biosciences. Cells were then stained using the Alexa Fluor 647-conjugated anti-active caspase-3 (BD Biosciences) at a dilution of 1:50. Cells were incubated for 30 minutes room temperature in the dark, washed, and then analyzed using the BD LSRFortessa cell analyzer."}, "[3]": {"test_system": "MOLM13, MV411, ML2, and HL60 cell lines", "test": "Cell viability, live cell count by Trypan blue exclusion", "assay_type": "cell-based, human", "conditions": "10 μM and 20 μM every 48 hours for 6 days", "description": "Cell culture. The human AML lines MV411, MOLM13, ML2, and HL60 were obtained from the American Type Culture Collection (ATCC, Manassas, Va., USA). Umbilical cord blood was obtained from the New York Blood Center. The identity of all cell lines was verified by STR analysis (Genetica DNA Laboratories, Burlington, N.C., USA) and absence of Mycoplasma sp. contamination was determined using Lonza MycoAlert (Lonza Walkersville, Inc., Walkersville, Md., USA). Cell lines were cultured in 5% CO2 in a humidified atmosphere at 37° C. in RPMI medium supplemented with 10% fetal bovine serum (FBS) and antibiotics (100 U/ml penicillin and 100 μg/ml streptomycin). Cell viability analysis. Cells were resuspended and plated at a concentration of 2×10^5 cells in 200 μL in 96-well tissue culture plates. Media with peptides was replaced every 48 hours. To assess the number of viable cells, cells were resuspended in PBS and 10 μL mixed in a 1:1 ratio with 0.4% Trypan Blue (Thermo Fisher) and counted using a hematocytometer (Hausser Scientific, Horsham, Pa., USA). To assess viability using an ATP-based assay, cell viability was assessed using the CellTiter-Glo Luminescent Viability assay, according to the manufacturer's instructions (Promega). Luminescence was recorded using the Infinite M1000Pro plate reader using integration time of 250 milliseconds (Tecan)."}, "MOLM13 cells": {"test_system": "MOLM13 cells", "test": "Giemsa staining of cells for morphology", "assay_type": "cell-based, human", "conditions": "20 μM, 6 hours", "description": "Giemsa staining of cells for Morphology. MOLM13 cells were resupended to a concentration of 1×10^6 cells in 1 milliliter of PBS. Using the benchtop Cytospin Centrifuge instrument (ThermoFisher Scientific), 200 uL of the cell suspension was applied white clipped Cytofunnels (ThermoFisher Scientific) to glass microscope slides (2×10^5 cells/slide). Dip Quick Stain (J-322, Jorgensen Laboratories, Inc) was used for per manufacturer's protocol for the polychromic stain of cells."}, "[4]": {"test_system": "primary MLL-rearranged AML", "test": "Primary patient derived xenograft, hCD45 staining of bone marrow", "assay_type": "in vivo, NSG mice", "conditions": "25 mg/kg daily intraperitoneal, 21 days", "description": "Mouse studies. All mouse experiments were carried out in accordance with institutional animal protocols. Two hundred thousand primary AML MLL-rearranged leukemia cells were suspended in […] of PBS and transplanted via tail vein injection into 8-week-old sublethally irradiation (200 rad) female NOD.Cg-Prkdc(scid)Il2rg(tm1Wjl)/SzJ mice (The Jackson Laboratory, Bar Harbor, Me., USA). Recipient mice were maintained on antibiotic supplementation in chow (0.025% trimethoprim, 0.124% sulfamethoxazole, Sulfatrim). Three days after transplant, mice were randomly assigned to experimental treatment groups. […]"}, "[5]": {"test_system": "MYB-dependent gene expression", "test": "RNA-seq gene expression after peptide treatment", "assay_type": "cell-based, human"}, "[6]": {"test_system": "primary patient-derived MLL-rearranged leukemia cells", "test": "Primary patient derived xenograft, survival analysis", "assay_type": "in vivo, NSG mice", "conditions": "50 mg/kg daily intraperitoneal, days 3-17, log-rank p=0.0038", "description": "Mouse studies. All mouse experiments were carried out in accordance with institutional animal protocols. Two hundred thousand primary AML MLL-rearranged leukemia cells were suspended in […] of PBS and transplanted via tail vein injection into 8-week-old sublethally irradiation (200 rad) female NOD.Cg-Prkdc(scid)Il2rg(tm1Wjl)/SzJ mice (The Jackson Laboratory, Bar Harbor, Me., USA). Recipient mice were maintained on antibiotic supplementation in chow (0.025% trimethoprim, 0.124% sulfamethoxazole, Sulfatrim). Three days after transplant, mice were randomly assigned to experimental treatment groups. MYBMIM peptide suspended in PBS was administered daily through intraperitoneal injection at a daily dose of 50 mg/kg. Mice were treated from days 3-17 of this study for a total of 14 days and then monitored daily with clinical examination for survival analysis.\nStatistical Analysis. For comparisons between two sample sets, statistical analysis of means was performed using 2-tailed, unpaired Student's t-tests. Survival analysis was done using the Kaplan-Meier method, as assessed using a log-rank test. For gene expression analysis, statistical significance was assessed using paired t-tests."}, "[7]": {"test_system": "MYC and BCL2 mRNA expression", "test": "RT-qPCR of BCL2 and MYC mRNA normalized to GAPDH", "assay_type": "cell-based", "conditions": "human AML cell lines", "description": "Quantitative RT-PCR. RNA was isolated using Trizol reagent according to the manufacturer's instructions (Life Technologies). Complementary DNA was synthesized using the SuperScript III First-Strand Synthesis system according to the manufacturer's instructions (Invitrogen). Quantitative real-time PCR was performed using the KAPA SYBR FAST PCR polymerase with 20 ng template and 200 nM primers, according to the manufacturer's instructions (Kapa Biosystems, Wilmington, Mass., USA). PCR primers are listed below. Ct values were calculated using ROX normalization using the ViiA 7 software (Applied Biosystems)."}}, "data": [{"smiles": "CC[C@@H](C)[C@@H](NC(=O)[C@@H](CCCCN)NC(=O)[C@@H](CCC(=O)O)NC(=O)[C@@H](CC(C)C)NC(=O)[C@@H](CCC(=O)O)NC(=O)[C@@H](CC(C)C)NC(=O)[C@@H](CC(C)C)NC(=O)[C@@H](CC(C)C)NC(=O)[C@@H](CCSC)NC(=O)[C@@H](CO)NC(=O)[C@H](NC(=O)[C@@H](CCC(=O)O)NC(=O)[C@@H](CC(N)=O)NC(=O)[C@@H](CCC(=O)O)NC(=O)[C@@H](CC(C)C)NC(=O)[C@@H](CCCCN)NC(C)=O)[C@H](C)O)C(=O)N[C@H](CCCNC(=N)N)C(=O)N[C@H](CCCCN)C(=O)NCC(=O)NCC(=O)N[C@H](CCCNC(=N)N)C(=O)N[C@H](CCCNC(=N)N)C(=O)N[C@H](CCCNC(=N)N)C(=O)N[C@H](CCC(N)=O)C(=O)N[C@H](CCCNC(=N)N)C(=O)N[C@H](CCCNC(=N)N)C(=O)N[C@H](CCCCN)C(=O)N[C@H](CCCCN)C(=O)N[C@H](CCCNC(=N)N)C(=O)NCC(=O)N[C@H](Cc1ccc(O)cc1)C(N)=O", "note": "[MYBMIM]", "values": [{"measurement": "rescue of peptide-induced apoptosis by ectopic Bcl2 expression (cell viability)", "setting": "MV411 cells [1]", "value": "partial rescue"}, {"measurement": "apoptosis (Annexin-V staining)", "setting": "MV411 cells [2]", "value": "induction of apoptosis"}, {"measurement": "AML cell death (live cells on Day 6)", "setting": "[3]", "value": "induction of AML cell death"}, {"measurement": "cell morphology", "setting": "MOLM13 cells", "value": "induces cell death without morphologic evidence of differentiation"}, {"measurement": "leukemia burden in bone marrow (hCD45 staining)", "setting": "[4]", "value": "decrease in the leukemia burden"}, {"measurement": "MYC and BCL2 expression (volcano plot)", "setting": "[5]; MV411 cells, MYBMIM vs control", "value": "significantly downregulated"}, {"measurement": "MYB-dependent gene expression (RNA-seq)", "setting": "[5]; human AML cells, 6 hours, 20 μM, vs TG3 and control", "value": "significant down-regulation"}, {"measurement": "survival of mice (Kaplan-Meier)", "setting": "[6]", "value": "prolongs survival"}, {"measurement": "survival of mice (Kaplan-Meier)", "setting": "[6]; listed as SEQ ID NO:1", "value": "impeded leukemia progression and extended survival"}, {"measurement": "MYC and BCL2 mRNA expression as a percentage of GAPDH", "setting": "[7]", "value": "downregulation"}]}]}
